In PubChem BioAssay (NCI):
“And” between values parts separate entries of the source, which are not always exact repeats. Equal values may be shown once.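 1) Cells in 96-well plates. 2) Compound, 48 h, 5 concentrations. 3) Linear interpolation between surrounding doses. 4) Unreached endpoint = highest concentration. Abbreviation: GI50, concentration required for 50% inhibition of growth. TGI: concentration producing complete growth inhibition.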

What was measured:
Assay in all cases: growth of human tumour cells (NCI), 48 h
[1] = system: SK-MEL-28 melanoma
[2] = system: T-47D breast
[3] = system: HT29 colon
[4] = system: SF-539 CNS
[5] = system: CAKI-1 renal
[6] = system: SW-620 colon
[7] = system: NCI/ADR-RES ovarian
[8] = system: MDA-MB-435
[9] = system: HCT-116 colon
[10] = system: OVCAR-5 ovarian
[11] = system: COLO 205 colon
[12] = system: SF-268 CNS
[13] = system: NCI-H522 lung
[14] = system: RXF 393 renal
[15] = system: HOP-62 NSCLC
[16] = system: K-562 leukemia
[17] = system: HL-60(TB) leukemia
[18] = system: UACC-62 melanoma
[19] = system: SNB-75 CNS
[20] = system: NCI-H23 lung
[21] = system: 786-0 renal
[22] = system: MOLT-4 leukemia
[23] = system: PC-3 prostate
[24] = system: EKVX NSCLC
[25] = system: U251 CNS
[26] = system: HCT-15 colon
[27] = system: DU-145 prostate
[28] = system: UO-31 renal
[29] = system: LOX IMVI melanoma
[30] = system: MALME-3M melanoma
[31] = system: A498 renal
[32] = system: IGROV1 ovarian
[33] = system: HCC-2998 colon
[34] = system: TK-10 renal
[35] = system: HOP-92 NSCLC
[36] = system: KM12 colon
[37] = system: HS 578T breast
[38] = system: RPMI-8226 leukemia
[39] = system: CCRF-CEM leukemia
[40] = system: M14 melanoma
[41] = system: BT-549 breast
[42] = system: MDA-MB-231 breast
[43] = system: SN12C renal
[44] = system: OVCAR-8 ovarian
[45] = system: SK-OV-3 ovarian
[46] = system: OVCAR-4 ovarian
[47] = system: NCI-H460 lung
[48] = system: MCF7 breast
[49] = system: SNB-19 CNS

`C/C=C/C1=CN2C(=O)c3cc(OC4OC(C)C(NC)C(C)(O)C4O)c(C)cc3N=C[C@@H]2C1` (stereo partly specified) gave a GI50 [1] of 22.5 nM, a TGI [1] of 50.8 nM and a GI50 [2] of 24.7 nM. It also gave a GI50 [3] of 24.2 nM, a TGI [3] of 66 nM and a GI50 [4] of 18.3 nM. The TGI [4] was 137 nM, the GI50 [5] was 39.1 nM and the GI50 [6] was 22.4 nM. It also gave a TGI [7] of 735 nM, a GI50 [8] of 15.8 nM and a TGI [8] of 32 nM. The TGI [9] was 11600 nM, the GI50 [10] was 43.1 nM and the TGI [10] was 10400 nM. It also gave a GI50 [11] of 17.5 nM, a TGI [11] of 41.1 nM and a GI50 [12] of 21.6 nM. The TGI [12] was 37.2 nM, the GI50 [13] was 7.62 nM and the TGI [13] was 30.1 nM. For the same compound, the GI50 [14] was 14 nM, the TGI [14] was 31.5 nM and the GI50 [15] was 22.2 nM. For the same compound, the TGI [15] was 70.3 nM, the GI50 [16] was 25.8 nM and the GI50 [17] was 21.1 nM. For the same compound, the TGI [17] was 101 nM, the GI50 [18] was 16.7 nM and the TGI [18] was 36.1 nM. For the same compound, the GI50 [19] was 15.9 nM, the TGI [19] was 55.5 nM and the GI50 [20] was 19.7 nM. For the same compound, the TGI [20] was 282 nM, the GI50 [21] was 22.6 nM and the TGI [21] was 49.3 nM. The GI50 [22] was 12.4 nM, the TGI [22] was 178 nM and the GI50 [23] was 44.1 nM. It also gave a TGI [23] of 26800 nM, a GI50 [24] of 242 nM and a TGI [24] of 20.3 nM. For the same compound, the GI50 [25] was 14.8 nM, the TGI [25] was 245 nM and 130 nM and the GI50 [26] was 174 nM. It also gave a TGI [26] of 11500 nM, a GI50 [27] of 38.2 nM and a TGI [27] of 1580 nM. The GI50 [28] was 24 nM, the TGI [28] was 59.6 nM and the GI50 [29] was 13.3 nM. For the same compound, the TGI [29] was 41.5 nM, the GI50 [30] was 20.1 nM and the TGI [30] was 39.6 nM. The GI50 [31] was 17.3 nM, the TGI [31] was 31.9 nM and the GI50 [32] was 30 nM. The GI50 [33] was 58.5 nM, the TGI [33] was 336 nM and the GI50 [34] was 26.4 nM. It also gave a TGI [34] of 68.3 nM, a GI50 [35] of 68.7 nM and a TGI [35] of over 100000 nM. For the same compound, the GI50 [36] was 34.5 nM, the TGI [36] was 544 nM and the GI50 [37] was 53.9 nM. It also gave a GI50 [38] of 24.6 nM, a TGI [38] of 94.7 nM and a GI50 [39] of 13 nM. The GI50 [40] was 14.1 nM, the TGI [40] was 31.2 nM and the GI50 [41] was 19.1 nM. The TGI [41] was 40.8 nM, the GI50 [42] was 35.7 nM and the TGI [42] was 17100 nM. It also gave a GI50 [43] of 33 nM, a TGI [43] of 11100 nM and a GI50 [44] of 17.9 nM. It also gave a TGI [44] of 87 nM, a TGI [45] of 11900 nM and a GI50 [46] of 25.8 nM. It also gave a GI50 [47] of 23.7 nM, a GI50 [48] of 8.47 nM and a TGI [48] of 11900 nM. It also gave a GI50 [49] of 30.7 nM and a TGI [49] of 12400 nM.
